Activity calls are given as the source filed them. No cut-off for these calls is given here.

The values below come from ChEMBL document CHEMBL5052836, “Interleukin-15 activity antagonist peptide” (2019).

A short description of assay [1]: Inhibition of cell proliferation in IL-15-induced mouse CTLL-2 cells measured after 72 hrs by MTT assay. The class given is functional, cell-based. To be noted: CTLL-2, 72 h. A general note: Tetrazolium dyes change colour on reduction, which living cells bring about.
Assay [2] has as its system Synovial cell. Nature of the assay: Inhibition of IL-15-induced TNF-alpha secretion in human synovial cells at 50 ug/ml and measured after 48 hrs by ELISA relative to control. The conditions noted are these: dose 50.0 µg/ml. It is filed as functional, cell-based. (ELISA stands for enzyme-linked immunosorbent assay.)
For assay [3], the system named is Synovial cell. Nature of the assay: Inhibition of IL-15-induced IL-6 secretion in human synovial cells at 50 ug/ml and measured after 48 hrs by ELISA relative to control. It is filed as functional, cell-based. To be noted: dose 50.0 µg/ml.
The species entered for assay [4] is Homo sapiens. Nature of the assay: Antagonist activity at IL-15Ralpha (unknown origin) assessed as inhibition of IL-15/IL-15Ralpha complex formation at 20 ug/ml using TMB as substrate incubated for 1 hr and measured after 1 hr by ELISA relative to control. To be noted: filed as antagonist, dose 20.0 µg/ml.

As to `CSCC[C@H](NC(=O)[C@@H](C)NC(=O)[C@@H](NC(=O)[C@@H](NC(=O)[C@@H](N)CCCCN)C(C)C)[C@@H](C)O)C(=O)N[C@@H](CCCCN)C(=O)N[C@H](CSSC[C@@H](NC(=O)[C@H](CCCCN)NC(=O)[C@H](CCSC)NC(=O)[C@@H](C)NC(=O)[C@@H](NC(=O)[C@@H](NC(=O)[C@@H](N)CCCCN)C(C)C)[C@@H](C)O)C(=O)N[C@@H](Cc1ccccc1)C(=O)N[C@@H](CC(C)C)C(=O)N[C@@H](CC(C)C)C(=O)O)C(=O)N[C@@H](Cc1ccccc1)C(=O)N[C@@H](CC(C)C)C(=O)N[C@@H](CC(C)C)C(=O)O`, the IC50 (usually the concentration that inhibits the measured activity by half) in assay [1] worked out at 56 µM.

Turning to `CSCC[C@H](NC(=O)[C@H](C)NC(=O)[C@@H](NC(=O)[C@@H](NC(=O)[C@@H](N)CCCCN)C(C)C)[C@@H](C)O)C(=O)N[C@@H](CCCCN)C(=O)N[C@@H](CS)C(=O)N[C@H](Cc1ccccc1)C(=O)N[C@@H](CC(C)C)C(=O)N[C@@H](CC(C)C)C(=O)O`, 118 µM corresponded to half-maximal inhibition in assay [1] (IC50).

`CSCC[C@H](NC(=O)[C@H](C)NC(=O)[C@@H](NC(=O)[C@@H](NC(=O)[C@@H](N)CCCCN)C(C)C)[C@@H](C)O)C(=O)N[C@@H](CCCCN)C(=O)N[C@@H](CS)C(=O)N[C@@H](Cc1ccccc1)C(=O)N[C@@H](CC(C)C)C(=O)N[C@H](CC(C)C)C(=O)O` had a half-inhibitory concentration (IC50) in assay [1] of 133 µM.

As for `CSCC[C@H](NC(=O)[C@H](C)NC(=O)[C@H](NC(=O)[C@@H](NC(=O)[C@@H](N)CCCCN)C(C)C)[C@H](C)O)C(=O)N[C@@H](CCCCN)C(=O)N[C@@H](CS)C(=O)N[C@@H](Cc1ccccc1)C(=O)N[C@@H](CC(C)C)C(=O)N[C@@H](CC(C)C)C(=O)O`, the IC50 in assay [1] was found to be 159 µM. The IC50 values of the last two compounds are within 1.5-fold of each other.

`CSCC[C@@H](NC(=O)[C@H](C)NC(=O)[C@@H](NC(=O)[C@@H](NC(=O)[C@@H](N)CCCCN)C(C)C)[C@@H](C)O)C(=O)N[C@@H](CCCCN)C(=O)N[C@@H](CS)C(=O)N[C@@H](Cc1ccccc1)C(=O)N[C@@H](CC(C)C)C(=O)N[C@@H](CC(C)C)C(=O)O` came in with an IC50 in assay [1] of 292 µM.

Regarding `CSCC[C@H](NC(=O)[C@H](C)NC(=O)[C@@H](NC(=O)[C@H](NC(=O)[C@@H](N)CCCCN)C(C)C)[C@@H](C)O)C(=O)N[C@@H](CCCCN)C(=O)N[C@@H](CS)C(=O)N[C@@H](Cc1ccccc1)C(=O)N[C@@H](CC(C)C)C(=O)N[C@@H](CC(C)C)C(=O)O`, 142 µM corresponded to half-maximal inhibition in assay [1] (IC50).

For the compound `CSCC[C@H](NC(=O)[C@@H](C)NC(=O)[C@@H](NC(=O)[C@@H](NC(=O)[C@H](N)CCCCN)C(C)C)[C@@H](C)O)C(=O)N[C@@H](CCCCN)C(=O)N[C@@H](CS)C(=O)N[C@@H](Cc1ccccc1)C(=O)N[C@@H](CC(C)C)C(=O)N[C@@H](CC(C)C)C(=O)O`, the inhibition result in assay [2] and in assay [3] was “Active” throughout. The compound further displayed an IC50 in assay [1] of 29 µM. Further, the inhibition (in general, the relative decrease from the control value, in per cent) in assay [4] was 89%.

In the case of `CSCC[C@H](NC(=O)[C@H](C)NC(=O)[C@@H](NC(=O)[C@@H](NC(=O)[C@@H](N)CCCCN)C(C)C)[C@@H](C)O)C(=O)N[C@@H](CCCCN)C(=O)N[C@@H](CS)C(=O)N[C@@H](Cc1ccccc1)C(=O)N[C@H](CC(C)C)C(=O)N[C@@H](CC(C)C)C(=O)O`, the concentration for half-maximal inhibition (IC50) in assay [1] turned out to be 134 µM.

Compound `CSCC[C@H](NC(=O)[C@H](C)NC(=O)[C@@H](NC(=O)[C@@H](NC(=O)[C@H](N)CCCCN)C(C)C)[C@@H](C)O)C(=O)N[C@@H](CCCCN)C(=O)N[C@@H](CS)C(=O)N[C@@H](Cc1ccccc1)C(=O)N[C@@H](CC(C)C)C(=O)N[C@@H](CC(C)C)C(=O)O` showed an IC50 in assay [1] of 100 µM.

Regarding `CSCC[C@H](NC(=O)[C@@H](C)NC(=O)[C@@H](NC(=O)[C@@H](NC(=O)[C@@H](N)CCCCN)C(C)C)[C@@H](C)O)C(=O)N[C@@H](CCCCN)C(=O)N[C@@H](CSSC[C@H](NC(=O)[C@H](CCCCN)NC(=O)[C@H](CCSC)NC(=O)[C@@H](C)NC(=O)[C@@H](NC(=O)[C@@H](NC(=O)[C@@H](N)CCCCN)C(C)C)[C@@H](C)O)C(=O)N[C@@H](Cc1ccccc1)C(=O)N[C@@H](CC(C)C)C(=O)N[C@@H](CC(C)C)C(=O)O)C(=O)N[C@@H](Cc1ccccc1)C(=O)N[C@@H](CC(C)C)C(=O)N[C@@H](CC(C)C)C(=O)O`, the inhibition entry in assay [2] and in assay [3] was “Active” each time. Inhibition in assay [1] was half-maximal at 8 µM (IC50). Further, the inhibition in assay [4] turned out to be 96%.

With `CSCC[C@H](NC(=O)[C@@H](C)NC(=O)[C@@H](NC(=O)[C@@H](NC(=O)[C@H](N)CCCCN)C(C)C)[C@@H](C)O)C(=O)N[C@@H](CCCCN)C(=O)N[C@@H](CSSC[C@H](NC(=O)[C@H](CCCCN)NC(=O)[C@H](CCSC)NC(=O)[C@@H](C)NC(=O)[C@@H](NC(=O)[C@@H](NC(=O)[C@H](N)CCCCN)C(C)C)[C@@H](C)O)C(=O)N[C@@H](Cc1ccccc1)C(=O)N[C@@H](CC(C)C)C(=O)N[C@@H](CC(C)C)C(=O)O)C(=O)N[C@@H](Cc1ccccc1)C(=O)N[C@@H](CC(C)C)C(=O)N[C@@H](CC(C)C)C(=O)O`, the inhibition entry in assay [2] and in assay [3] was “Active” each time. In addition, the IC50 in assay [1] came to 12 µM. For the same compound, the inhibition in assay [4] stood at 92%.

As to `CSCC[C@H](NC(=O)[C@H](C)NC(=O)[C@@H](NC(=O)[C@@H](NC(=O)[C@@H](N)CCCCN)C(C)C)[C@@H](C)O)C(=O)N[C@@H](CCCCN)C(=O)N[C@H](CS)C(=O)N[C@@H](Cc1ccccc1)C(=O)N[C@@H](CC(C)C)C(=O)N[C@@H](CC(C)C)C(=O)O`, the IC50 in assay [1] was 103 µM.

Turning to `CSCC[C@H](NC(=O)[C@@H](C)NC(=O)[C@@H](NC(=O)[C@@H](NC(=O)[C@@H](N)CCCCN)C(C)C)[C@@H](C)O)C(=O)N[C@@H](CCCCN)C(=O)N[C@H](CS)C(=O)N[C@@H](Cc1ccccc1)C(=O)N[C@@H](CC(C)C)C(=O)N[C@@H](CC(C)C)C(=O)O`, in assay [1], half-maximal inhibition (IC50) was put at 296 µM.

As for `CSCC[C@H](NC(=O)[C@@H](C)NC(=O)[C@@H](NC(=O)[C@@H](NC(=O)[C@@H](N)CCCCN)C(C)C)[C@@H](C)O)C(=O)N[C@@H](CCCCN)C(=O)N[C@@H](CS)C(=O)N[C@@H](Cc1ccccc1)C(=O)N[C@@H](CC(C)C)C(=O)N[C@@H](CC(C)C)C(=O)O`, the inhibition result in assay [2] and in assay [3] was “Active” in each case. This compound displayed an IC50 in assay [1] of 28 µM. In addition, the inhibition in assay [4] was 92%.

In the case of `CSCC[C@H](NC(=O)[C@H](C)NC(=O)[C@@H](NC(=O)[C@@H](NC(=O)[C@@H](N)CCCCN)C(C)C)[C@@H](C)O)C(=O)N[C@H](CCCCN)C(=O)N[C@@H](CS)C(=O)N[C@@H](Cc1ccccc1)C(=O)N[C@@H](CC(C)C)C(=O)N[C@@H](CC(C)C)C(=O)O`, in assay [1], inhibition was half-maximal at 168 µM (IC50).

`CSCC[C@H](NC(=O)[C@H](C)NC(=O)[C@@H](NC(=O)[C@@H](NC(=O)[C@@H](N)CCCCN)C(C)C)[C@@H](C)O)C(=O)N[C@@H](CCCCN)C(=O)N[C@@H](CS)C(=O)N[C@@H](Cc1ccccc1)C(=O)N[C@@H](CC(C)C)C(=O)N[C@@H](CC(C)C)C(=O)O` had an IC50 in assay [1] of 130 µM. Also, the inhibition in assay [4] amounted to 70%.
